{"source": "paper PMC12057336", "about": "(Antimicrobial Agents and Chemotherapy, 2025)", "key": {"[1]": {"test": "Tissue distribution after i.g. or i.v. linezolid in control, CCl4-induced and 5/6 Nx rats", "format": "in vivo, rat", "conditions": "for Kp at 1 h / Kp at 4 h / Kp at 0.5 h: rat", "excerpt": "These two groups were further divided into the following three subgroups (n = 4): control rats, CCl4-induced rats, and 5/6 Nx rats. […] The rats were euthanized immediately after blood sampling. The brain, heart, lungs, liver, kidneys, and small intestine were collected. The collected tissues were washed and homogenized in normal saline (three-fold volume of each sample weight) using a multi-sample tissue grinder (Tissuelyser-48L; Shanghai Jingxin Industrial Development Co. Ltd., Shanghai, China). After centrifugation of the homogenate samples at 12,000 × g for 10 min at 4°C, the supernatants were stored at −80°C.\nThe flow rate was 1.0 mL/min.\nThen, 5 µL of the supernatant was analyzed."}, "[2]": {"conditions": "cited from earlier work; for median plasma concentration: standard doses"}, "OCT3": {"test_system": "OCT3", "conditions": "cited from earlier work"}, "OATP2B1": {"test_system": "OATP2B1", "conditions": "cited from earlier work"}, "[3]": {"conditions": "liver, oral, 63 mg/kg, i.g. 63 mg/kg linezolid, CCl4-induced rats, read-out: Tissue/plasma concentration ratio, Liver"}, "[4]": {"conditions": "liver, oral, 63 mg/kg, i.g. 63 mg/kg linezolid, control rats, read-out: Tissue/plasma concentration ratio, Liver"}, "[5]": {"conditions": "lung, iv, 25 mg/kg, i.v. 25 mg/kg linezolid, 5/6 Nx rats, read-out: Tissue/plasma concentration ratio, Lung"}, "[6]": {"conditions": "lung, iv, 25 mg/kg, i.v. 25 mg/kg linezolid, CCl4-induced rats, read-out: Tissue/plasma concentration ratio, Lung"}, "[7]": {"conditions": "lung, iv, 25 mg/kg, i.v. 25 mg/kg linezolid, control rats, read-out: Tissue/plasma concentration ratio, Lung"}, "[8]": {"conditions": "lung, oral, 63 mg/kg, i.g. 63 mg/kg linezolid, 5/6 Nx rats, read-out: Tissue/plasma concentration ratio, Lung"}, "[9]": {"conditions": "lung, oral, 63 mg/kg, i.g. 63 mg/kg linezolid, CCl4-induced rats, read-out: Tissue/plasma concentration ratio, Lung"}, "[10]": {"conditions": "lung, oral, 63 mg/kg, i.g. 63 mg/kg linezolid, control rats, read-out: Tissue/plasma concentration ratio, Lung"}, "[11]": {"conditions": "small intestine, iv, 25 mg/kg, i.v. 25 mg/kg linezolid, 5/6 Nx rats, read-out: Tissue/plasma concentration ratio, Small intestine"}, "[12]": {"conditions": "small intestine, iv, 25 mg/kg, i.v. 25 mg/kg linezolid, CCl4-induced rats, read-out: Tissue/plasma concentration ratio, Small intestine"}, "[13]": {"conditions": "small intestine, iv, 25 mg/kg, i.v. 25 mg/kg linezolid, control rats, read-out: Tissue/plasma concentration ratio, Small intestine"}, "[14]": {"conditions": "small intestine, oral, 63 mg/kg, i.g. 63 mg/kg linezolid, 5/6 Nx rats, read-out: Tissue/plasma concentration ratio, Small intestine"}, "[15]": {"conditions": "small intestine, oral, 63 mg/kg, i.g. 63 mg/kg linezolid, CCl4-induced rats, read-out: Tissue/plasma concentration ratio, Small intestine"}, "[16]": {"conditions": "small intestine, oral, 63 mg/kg, i.g. 63 mg/kg linezolid, control rats, read-out: Tissue/plasma concentration ratio, Small intestine"}, "[17]": {"conditions": "thrombocytopenic patients with moderate renal failure"}}, "note": "Like-named read-outs stand apart in the source and are kept apart here."}
{"smiles": "CC(=O)NC[C@H]1CN(c2ccc(N3CCOCC3)c(F)c2)C(=O)O1", "note": "[Linezolid]", "values": [{"measurement": "Kp at 1 h", "setting": "[1]; [3]", "result": "1.19 ± 0.18"}, {"measurement": "Kp at 1 h", "setting": "[1]; [4]", "result": "0.78 ± 0.14"}, {"measurement": "Kp at 4 h", "setting": "[1]; liver, oral, 63 mg/kg, i.g. 63 mg/kg linezolid, 5/6 Nx rats, read-out: Tissue/plasma concentration ratio, Liver", "result": "1 ± 0.11"}, {"measurement": "Kp at 4 h", "setting": "[1]; [3]", "result": "0.93 ± 0.31"}, {"measurement": "Kp at 4 h", "setting": "[1]; [4]", "result": "1.06 ± 0.16"}, {"measurement": "Kp at 0.5 h", "setting": "[1]; [5]", "result": "0.87 ± 0.03"}, {"measurement": "Kp at 0.5 h", "setting": "[1]; [6]", "result": "0.55 ± 0.34"}, {"measurement": "Kp at 0.5 h", "setting": "[1]; [7]", "result": "0.42 ± 0.25"}, {"measurement": "Kp at 1 h", "setting": "[1]; [5]", "result": "0.91 ± 0.08"}, {"measurement": "Kp at 1 h", "setting": "[1]; [6]", "result": "0.66 ± 0.08"}, {"measurement": "Kp at 1 h", "setting": "[1]; [7]", "result": "0.25 ± 0.18"}, {"measurement": "Kp at 4 h", "setting": "[1]; [5]", "result": "0.74 ± 0.2"}, {"measurement": "Kp at 4 h", "setting": "[1]; [6]", "result": "0.85 ± 0.14"}, {"measurement": "Kp at 4 h", "setting": "[1]; [7]", "result": "0.45 ± 0.46"}, {"measurement": "Kp at 0.5 h", "setting": "[1]; [8]", "result": "0.86 ± 0.38"}, {"measurement": "Kp at 0.5 h", "setting": "[1]; [9]", "result": "0.68 ± 0.16"}, {"measurement": "Kp at 0.5 h", "setting": "[1]; [10]", "result": "0.67 ± 0.13"}, {"measurement": "Kp at 1 h", "setting": "[1]; [8]", "result": "0.94 ± 0.18"}, {"measurement": "Kp at 1 h", "setting": "[1]; [9]", "result": "0.66 ± 0.05"}, {"measurement": "Kp at 1 h", "setting": "[1]; [10]", "result": "0.07 ± 0.03"}, {"measurement": "Kp at 4 h", "setting": "[1]; [8]", "result": "0.82 ± 0.09"}, {"measurement": "Kp at 4 h", "setting": "[1]; [9]", "result": "0.6 ± 0.04"}, {"measurement": "Kp at 4 h", "setting": "[1]; [10]", "result": "0.46 ± 0.15"}, {"measurement": "Kp at 0.5 h", "setting": "[1]; [11]", "result": "1.19 ± 0.31"}, {"measurement": "Kp at 0.5 h", "setting": "[1]; [12]", "result": "0.66 ± 0.05"}, {"measurement": "Kp at 0.5 h", "setting": "[1]; [13]", "result": "0.42 ± 0.21"}, {"measurement": "Kp at 1 h", "setting": "[1]; [11]", "result": "0.77 ± 0.34"}, {"measurement": "Kp at 1 h", "setting": "[1]; [12]", "result": "0.69 ± 0.05"}, {"measurement": "Kp at 1 h", "setting": "[1]; [13]", "result": "0.21 ± 0.01"}, {"measurement": "Kp at 4 h", "setting": "[1]; [11]", "result": "0.73 ± 0.07"}, {"measurement": "Kp at 4 h", "setting": "[1]; [12]", "result": "0.71 ± 0.09"}, {"measurement": "Kp at 4 h", "setting": "[1]; [13]", "result": "0.47 ± 0.42"}, {"measurement": "Kp at 0.5 h", "setting": "[1]; [14]", "result": "2.48 ± 0.76"}, {"measurement": "Kp at 0.5 h", "setting": "[1]; [15]", "result": "0.93 ± 0.26"}, {"measurement": "Kp at 0.5 h", "setting": "[1]; [16]", "result": "0.35 ± 0.21"}, {"measurement": "Kp at 1 h", "setting": "[1]; [14]", "result": "1.28 ± 0.29"}, {"measurement": "Kp at 1 h", "setting": "[1]; [15]", "result": "0.9 ± 0.09"}, {"measurement": "Kp at 1 h", "setting": "[1]; [16]", "result": "0.33 ± 0.22"}, {"measurement": "Kp at 4 h", "setting": "[1]; [14]", "result": "0.9 ± 0.31"}, {"measurement": "Kp at 4 h", "setting": "[1]; [15]", "result": "1.11 ± 0.07"}, {"measurement": "Kp at 4 h", "setting": "[1]; [16]", "result": "0.6 ± 0.18"}, {"measurement": "accumulation in brain, heart, lung, liver, kidney, or small intestinal tissues", "setting": "[1]; within 4 hours after i.g. and i.v. administration, hepatic impairment or renal failure rats", "result": "did not accumulate"}, {"measurement": "administered dose excreted in the urine as the parent drug", "setting": "[2]", "result": 35, "unit": "%"}, {"measurement": "apparent volume of distribution (Vd)", "setting": "[2]", "result": "40 to 50", "unit": "L"}, {"measurement": "elimination half-life (t1/2)", "setting": "[2]", "result": "5 to 7", "unit": "h"}, {"measurement": "total clearance (CL)", "setting": "[2]", "result": 80, "unit": "mL/min"}, {"measurement": "median plasma concentration", "setting": "[2]; controls without liver cirrhosis", "result": 2.70, "unit": "mg/L"}, {"measurement": "mean recovery of linezolid radioactivity in excreta", "setting": "[2]; healthy volunteers", "result": 93.8, "unit": "%"}, {"measurement": "radioactivity excreted in the feces", "setting": "[2]; healthy volunteers", "result": 9.9, "unit": "%"}, {"measurement": "radioactivity excreted in the urine", "setting": "[2]; healthy volunteers", "result": 83.9, "unit": "%"}, {"measurement": "share of dosed linezolid in the urine", "setting": "[2]; humans", "result": "more than 30%"}, {"measurement": "CL", "setting": "[2]; patient with acute-on-chronic liver failure", "result": 1.54, "unit": "L/h"}, {"measurement": "median plasma concentration", "setting": "[2]; patients with liver cirrhosis", "result": 20.6, "unit": "mg/L"}, {"measurement": "median trough concentration", "setting": "[2]; patients with mild hepatic impairment", "result": 5.51, "unit": "mg/L"}, {"measurement": "median trough concentration", "setting": "[2]; patients with moderate hepatic impairment", "result": 6.70, "unit": "mg/L"}, {"measurement": "median trough concentration", "setting": "[2]; patients with severe hepatic impairment", "result": 20.7, "unit": "mg/L"}, {"measurement": "CL", "setting": "[2]; patients without concomitant liver failure", "result": 6.26, "unit": "L/h"}, {"measurement": "AUC0-24", "setting": "[2]; [17]", "result": "513.1 to 994.6", "unit": "µg·h/mL"}, {"measurement": "trough concentration", "setting": "[2]; [17]", "result": "14.4 to 35.6", "unit": "mg/L"}, {"measurement": "substrate for OCT3", "setting": "OCT3", "result": "not a substrate"}, {"measurement": "inhibitor of OATP2B1", "setting": "OATP2B1", "result": "inhibitor"}]}
